Laboratory results published in patent US20250049776A1, “AUTOPHAGY INDUCING COMPOUNDS AND USES THEREOF, IN PARTICULAR FOR A SYSTEMIC TREATMENT OF DISEASES AND CONDITIONS” (Samsara Therapeutics Inc., priority 2021, published 2025).
Counter-ions that a name gives are not always drawn.

Tested on: dopaminergic Tyrosine hydroxylase (TH)-positive neurons injured with MPTP
Assay: Cellular model of Parkinson's disease (MPTP/MPP+ injury of primary mesencephalic neurons)
Format: cell-based, Rat
Conditions: concentrations of 500 μM and 1 μM
Excerpt: This model (run by Neuro-Sys SAS, France) is based on a primary culture of dopaminergic Tyrosine hydroxylase (TH)-positive neurons injured with the dopaminergic neurons-specific toxin (DA-toxin) 1-methyl-4-phenyl-1,2,3,6 tetrahydropyridine (MPTP, a prodrug of MPP*) (Dauer and Przedborski, 2003). Any substances reducing DA-toxin neurotoxicity may be useful as a new therapeutic agent for the treatment or prevention of PD.
Primary culture of mesencephalic neurons: Rat dopaminergic neurons were cultured as described by Visanji et al., 2008 and Callizot et al., 2019. Briefly, pregnant female rat (Wistar) of 15 days of gestation were killed using a deep anesthesia with CO2 chamber and a cervical dislocation. The midbrains obtained from 15-day-old rat embryos (Janvier, France) were dissected under a microscope. The embryonic midbrains will be removed and placed in ice-cold medium of Leibovitz (L15) containing 2% of Penicillin-Streptomycin (PS) and 1% of bovine serum albumin (BSA). The ventral portion of the mesencephalic flexure, a region of the developing brain rich in dopaminergic neurons, was used for the cell preparations.
The midbrains were dissociated by trypsinisation for 20 min at 37° C. (solution at a final concentration of 0.05% trypsin and 0.02% EDTA). The reaction was stopped by the addition of Dulbecco's modified Eagle's medium (DMEM) containing DNAase I grade II (0.5 mg/mL) and 10% of foetal calf serum (FCS). Cells were then mechanically dissociated by 3 passages through a 10 ml pipette. Cells were then centrifuged at 180×g for 10 min at +4° C. on a layer of BSA (3.5%) in L15 medium. The supernatant was discarded and the cell pellets re-suspended in a defined culture medium consisting of Neurobasal supplemented with B27 (2%), L-glutamine (2 mM) and 2% of PS solution and 10 ng/mL of Brain-derived neurotrophic factor (BDNF) and 1 ng/mL of Glial-Derived Neurotrophic Factor (GDNF). Viable cells were counted in a Neubauer cytometer using the trypan blue exclusion test. The cells were seeded at a density of 40,000 cells/well in 96 well-plates (pre-coated with poly-L-lysine) and maintained in a humidified incubator at 37° C. in 5% CO2/95% air atmosphere. Half of the medium was changed every 2 days with fresh medium. The wells of first and last lines and columns […] (to avoid any edge effect) and were be filled with sterile water.
Test compounds and MPTP: • i) Pre-incubation. On day 6 of culture, the test compounds were dissolved in PBS or DMSO and incubated for 1 hour before the MPTP exposure. • ii) Injury. One hour after the application of test compound, MPTP was added to a final concentration of 4 μM, diluted in control medium still in presence of compounds/inhibitors for 48h. Test compounds were tested on one culture in 96-well plate (n=6 culture wells per condition).
Immunostaining: TH and α-Synuclein. 48 Hours after intoxication, the cell culture supernatant was removed, and the cells were fixed by a solution of 4% paraformaldehyde in PBS, pH=7.3 for 20 min at room temperature. The cells were washed twice in PBS, and then permeabilized. Non-specific sites were blocked with a solution of PBS containing 0.1% of saponin and 1% FCS for 15 min at room temperature. The cultures were incubated with: (a) monoclonal anti-Tyrosine Hydroxylase (TH) antibody produced in mouse at dilution of 1/10000 in PBS containing 1% FCS, 0.1% saponin, for 2 hours at room temperature, and (b) polyclonal anti-alpha synuclein (α-synuclein) antibody produced in rabbit at dilution of 1/200 in PBS containing 1% FCS, 0.1% saponin, for 2 h at room temperature.
Automatic computer analysis. For each condition, 20 pictures (representing the whole well area) were automatically taken using ImageXpress® (Molecular Devices) at 10× magnification (20 pictures, for TH and α-synuclein into TH neurons) using the same acquisition parameters. From images, analyses was directly and automatically performed by MetaXpress® (Molecular Devices).

## CCCN(C(=O)c1csc(-c2cnn(-c3ccccc3)c2)n1)[C@@H]1CCNC1 [Compound 171, (R)-2-(1-phenyl-1H-pyrazol-4-yl)-N-propyl-N-(pyrrolidin-3-yl)thiazole-4-carboxamide hydrochloride]
  decrease in α-syn area per dopaminergic TH positive neuron compared to MPP+ injury alone: > 18%
  increase in the length of the neurite network of dopaminergic TH positive neurons compared to the MPP+ injury alone: > 31%
  increase in the number of dopaminergic TH positive neurons compared to MPP+ injury alone: > 25%
